Experimental data taken from patent US5559141A, “Selective aromatase inhibiting 4(5)-imidazoles” (Orion-yhtyma Oy, priority 1991, dated 1996).

What was measured:
desmolase = experiment: inhibition of cholesterol side chain cleavage (SCC) activity (desmolase); format: biochemical; conditions: mitochondrial fraction from human placenta or bovine adrenals, 37° C., 30 min; read-out: DESMOLASE IC-50
Procedure: Incubations were carried out in 1,5 ml Eppendorf plastic tubes, and an Eppendorf shaker, centrifuge and incubator were used as a unit. […] Controls contained all the above substances but the enzyme preparation was inactivated prior to the incubation by the addition of 900 μof methanol. The mitochondrial fraction (1 mg protein) from human placenta or bovine adrenals was used as a source of enzyme. After 30 min incubation at 37° C., the reaction was terminated by the addition of 900 μl of methanol; 1500 dpm of marker ^14 C-4-pregnenolone was added to each incubate and the tubes were vigorously shaken. […] The column was washed with one ml of 75% methanol and then with 3 ml of 80% methanol. The 80% methanol eluate was run into the counting vial and 10 ml of scintillation liquid was added. Radioactivity was counted using a double-label program on a liquid scintillation counter (LKB RackBeta). Typical activities for placental and bovine adrenal enzyme preparation were 0,5-3 and 50-100 pmol pregnenolone formed/mg protein/min,respectively.
In inhibition experiments, the substance (final concentration range from 1 to 1000 μM) was added into incubation mixture in a volume of 10-20 μl, usually as methanol or ethanol solution. The same volume of the solute was added into control incubation vial.

[1] = acute toxicity, LD50, oral, mice; conditions: mouse, in vivo, young adult female NMRI-Stmin mice
Procedure: Acute toxicity, LD50, was determined by using young adult female mice of NMRI-Stmin. The administration of the test compounds was oral.

human aromatase = molecular target: T1, human aromatase (Homo sapiens, UniProt P11511); experiment: in vitro inhibition of aromatase (human placental microsomes, 3H2O release); format: biochemical; conditions: 37° C., 40 min, read-out: AROMATASE IC-50 (converted)
T1 construct: The enzyme was prepared from human placenta, which is rich of the enzyme; from tissue; host or cells: human placenta, microsomal fraction (100000×g precipitate), not further purified
T1 sequence (P11511 1-503): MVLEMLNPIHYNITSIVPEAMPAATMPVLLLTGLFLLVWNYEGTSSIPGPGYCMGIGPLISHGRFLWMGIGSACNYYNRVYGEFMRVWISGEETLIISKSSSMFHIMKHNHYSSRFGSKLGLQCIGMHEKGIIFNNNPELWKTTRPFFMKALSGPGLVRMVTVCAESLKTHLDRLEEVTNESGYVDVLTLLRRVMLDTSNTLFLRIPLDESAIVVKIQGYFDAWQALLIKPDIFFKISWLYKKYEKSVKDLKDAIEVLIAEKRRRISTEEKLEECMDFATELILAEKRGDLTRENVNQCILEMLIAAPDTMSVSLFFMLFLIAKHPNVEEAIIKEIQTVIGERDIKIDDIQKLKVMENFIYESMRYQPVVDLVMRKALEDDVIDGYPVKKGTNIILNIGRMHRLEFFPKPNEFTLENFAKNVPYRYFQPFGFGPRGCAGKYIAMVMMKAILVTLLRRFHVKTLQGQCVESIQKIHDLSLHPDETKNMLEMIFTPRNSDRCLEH
Procedure: Human aromatase enzyme was used. The enzyme was prepared from human placenta, which is rich of the enzyme. Microsomal fraction (100000×g precipitate) was prepared by centrifugation. The enzyme preparation was used without further purification. […] The incubation was camed out at 37° C. for 40 min. Aromatization of 1,2[^3 H]-androstene-3,17-dione results in the production of ^3 H2 O. The tritiated water and the tritiated substrate are easily separated by a Sep-Pak™ minicolumn, which absorbs the steroid but allows free water elution. Radioactivity was counted by a liquid scintillation counter. Aromatase inhibition was evaluated by comparing the ^3 H2 O-radioactivity of inhibitor treated samples to controls containing no inhibitor. IC-50 values were calculated as concentrations which inhibited the enzyme activity 50%.

Row | Compound | IC50 (desmolase) [µM] | LD50 [1] [mg/kg] | IC50 (human aromatase) [µM]
1 | COc1ccc(C(CCc2c[nH]cn2)c2ccc(C#N)cc2)cc1 (stereo not shown) [Compound 10a, 4-[3-(4-cyanophenyl)-3-(4-methoxyphenyl)propyl]-1H-imidazole] | 33 |  | 
2 | N#Cc1ccc(C(CCCc2ccccc2)c2c[nH]cn2)cc1 (stereo not shown) [Compound 1b, 4-[1-(4-cyanophenyl)-4-phenylbutyl]-1H-imidazole] | 12 |  | 
3 | N#Cc1ccc(C(CCCc2ccc(F)cc2)c2c[nH]cn2)cc1 (stereo not shown) [Compound 2b, 4-[1-(4-cyanophenyl)-4-(4-fluorophenyl)butyl]-1H-imidazole] | 20 |  | 
4 | N#Cc1ccc(C(CCc2c[nH]cn2)c2ccc(C(F)(F)F)cc2)cc1 (stereo not shown) [Compound 9a, 4-[3-(4-cyanophenyl)-3-(4-trifluoromethylphenyl)propyl]-1H-imidazole] | 64 |  | 
5 | N#Cc1ccc(C(CCc2c[nH]cn2)c2ccc(F)cc2)cc1 (stereo not shown) [Compound 3a, 4-[3-(4-cyanophenyl)-3-(4-fluorophenyl)propyl]-1H-imidazole] | 43 | 210 | 
6 | N#Cc1ccc(C(CCc2c[nH]cn2)c2ccc(C#N)cc2)cc1 [Compound 2a, 4-[3,3-bis(4-cyanophenyl)propyl]-1H-imidazole] | 36 |  | 
7 | N#Cc1ccc(C(=CCc2cncn2Cc2ccccc2)c2ccc(C#N)cc2)cc1 [Compound 5a, 1-benzyl-5-[3,3-bis(4-cyanophenyl)-2-propenyl]-1H-imidazole] |  |  | 3.2
8 | N#Cc1ccc(C(=CCc2c[nH]cn2)c2ccc(C#N)cc2)cc1 [Compound 8a, 4-[3,3-bis(4-cyanophenyl)-2-propenyl]-1H-imidazole] | 33 |  | 0.97
9 | N#Cc1ccc(C(CCc2c[nH]cn2)c2ccccc2)cc1 (stereo not shown) [Compound 1a, 4-[3-(4-cyanophenyl)-3-phenylpropyl]-1H-imidazole] | 14 |  | 
10 | N#Cc1ccc(CC=C(c2ccc(F)cc2)c2c[nH]cn2)cc1 [Compound 8b, 4-[3-(4-cyanophenyl)-1-(4-fluorophenyl)-1-propenyl]-1H-imidazole] |  |  | 1
11 | N#Cc1ccc(C(=CCCc2ccc(F)cc2)c2c[nH]cn2)cc1 [Compound 3b, 4-[1-(4-cyanophenyl)-4-(4-fluorophenyl)-1-butenyl)-1H-imidazole] | 26 |  | 
12 | N#Cc1ccc(C(=CCCc2ccc(F)cc2)c2c[nH]cn2)cc1 (single isomer, unassigned; isomer a) [Compound 4b, 4-[1-(4-cyanophenyl)-4-(4-fluorophenyl)-1-butenyl]-1H-imidazole, isomer a] | 33 |  | 
13 | N#Cc1ccc(C(=CCc2c[nH]cn2)c2ccc(F)cc2)cc1 [Compound 4a, 4-[3-(4-cyanophenyl)-3-(4-fluorophenyl)-2-propenyl]-1H-imidazole] | 62 |  | 0.65
14 | N#Cc1ccc(C(CCCc2c[nH]cn2)c2ccc(C#N)cc2)cc1 [Compound 6a, 4-[4,4-bis(4-cyanophenyl)butyl]-1H-imidazole] | 47 |  | 
15 | N#Cc1ccc(C(=CCc2ccc(F)cc2)c2c[nH]cn2)cc1 (single isomer, unassigned; isomer a) [Compound 6b, 4-[1-(4-cyanophenyl)-3-(4-fluorophenyl)-1-propenyl]-1H-imidazole, isomer a] | 36 | > 400 | 
16 | N#Cc1ccc(C(=CCCc2ccc(F)cc2)c2c[nH]cn2)cc1 (single isomer, unassigned; isomer b) [Compound 5b, 4-[1-(4-cyanophenyl)-4-(4-fluorophenyl)-1-butenyl]-1H-imidazole, isomer b] | > 1000 |  | 
17 | N#Cc1ccc(C(CCCc2cncn2Cc2ccccc2)c2ccc(C#N)cc2)cc1 [Compound 7a, 1-benzyl-5-[4,4-bis(4-cyanophenyl)butyl]-1H-imidazole] | 22 |  | 5
